From ChEMBL document CHEMBL5104233, “Advanced approaches of developing targeted covalent drugs” (RSC Med Chem, 2022)
Each block holds one molecule with its values, some of them ahead of it.

Key:
[1] = target: Human immunodeficiency virus type 1 reverse transcriptase (Human immunodeficiency virus 1, UniProt Q72547, Y181C); test: Inhibition of HIV-1 reverse transcriptase Y181C mutant
Jurkat = test: Antiproliferative activity against human Jurkat cells assessed as inhibition of cell growth incubated for 72 hrs by Celltiter Glo assay; format: functional, cell-based
[2] = target: T1, Cyclin-dependent kinase 2 (Homo sapiens, UniProt P24941); test: Inhibition of CDK2 (unknown origin)
[3] = target: T1, Cyclin-dependent kinase 2; test: Inhibition of pan-CDK2 (unknown origin) relative to control; conditions: concentration not given here
CD4+ve Th = test: Inhibition of Th1 cell differentiation in human peripheral blood CD4+ve Th cells assessed as decrease in IFNgamma production measured after 5 days; format: functional, cell-based; conditions: 120 h
CDK7/Cyclin H/MNAT1 = CDK7/Cyclin H/MNAT1 (Homo sapiens, UniProt P50613); test: Inhibition of CDK7/Cyclin H/MAT1 (unknown origin) in leukemia cells; format: cell-based, Leukemia cell
CDK7/Cyclin H/MNAT1, sequence (P51946 whole entry): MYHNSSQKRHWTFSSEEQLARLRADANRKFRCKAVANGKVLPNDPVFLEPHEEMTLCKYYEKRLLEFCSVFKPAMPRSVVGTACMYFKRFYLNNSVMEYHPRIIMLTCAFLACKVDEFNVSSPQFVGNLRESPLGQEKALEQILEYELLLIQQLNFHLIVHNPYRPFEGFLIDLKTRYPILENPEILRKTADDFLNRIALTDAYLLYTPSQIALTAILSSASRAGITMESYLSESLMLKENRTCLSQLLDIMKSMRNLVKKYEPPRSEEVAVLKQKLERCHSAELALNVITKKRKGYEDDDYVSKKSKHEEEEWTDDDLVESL
CDK7/Cyclin H/MNAT1, sequence (P50613 whole entry): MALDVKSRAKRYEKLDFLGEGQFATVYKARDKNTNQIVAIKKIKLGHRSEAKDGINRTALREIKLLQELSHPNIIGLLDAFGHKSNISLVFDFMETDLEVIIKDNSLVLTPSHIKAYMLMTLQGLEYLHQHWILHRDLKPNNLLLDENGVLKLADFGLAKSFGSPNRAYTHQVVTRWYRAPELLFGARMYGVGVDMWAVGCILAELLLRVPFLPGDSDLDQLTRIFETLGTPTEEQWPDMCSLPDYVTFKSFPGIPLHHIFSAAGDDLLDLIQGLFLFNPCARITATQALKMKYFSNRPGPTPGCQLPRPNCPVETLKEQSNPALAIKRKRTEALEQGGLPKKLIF
CDK7/Cyclin H/MNAT1, sequence (P51948 whole entry, further chain): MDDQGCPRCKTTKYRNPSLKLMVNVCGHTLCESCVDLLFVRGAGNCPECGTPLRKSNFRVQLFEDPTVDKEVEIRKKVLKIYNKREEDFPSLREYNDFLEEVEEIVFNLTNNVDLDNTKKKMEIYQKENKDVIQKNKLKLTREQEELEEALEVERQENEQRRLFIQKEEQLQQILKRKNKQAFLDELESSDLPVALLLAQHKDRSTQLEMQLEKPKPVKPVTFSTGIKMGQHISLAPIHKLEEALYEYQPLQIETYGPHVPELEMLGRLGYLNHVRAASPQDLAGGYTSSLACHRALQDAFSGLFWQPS

Compound: C=CC(=O)N(C)c1cc(Oc2ccccc2OCCn2ccc(=O)[nH]c2=O)c(C)c2cc(C#N)ccc12
IC50 [1]: 400 nM

Compound: CN(C)C/C=C/C(=O)Nc1ccc(C(=O)N2CCC[C@H](Nc3ncc(Cl)c(-c4c[nH]c5ccccc45)n3)C2)cc1
IC50 (Jurkat): 50 nM

Compound: C=CC(=O)N1C[C@H](Nc2ncnc3[nH]ccc23)CC[C@@H]1C [RITLECITINIB]
IC50 (CD4+ve Th): 48 nM

Compound: Cc1c(Oc2ccccc2OCCn2ccc(=O)[nH]c2=O)cc(N(C)C(=O)CCl)c2ccc(C#N)cc12
IC50 [1]: 480 nM

Next, values leading:

IC50 [2]: 160 nM
inhibition [3]: 50%
Compound: C=CS(=O)(=O)c1ccc(Nc2nc(OCC3CCCCC3)c3nc[nH]c3n2)cc1

IC50 (CDK7/Cyclin H/MNAT1): 1.3 nM
Compound: C=C(F)C(=O)N1CCN(c2nc(OC[C@@H]3CCCN3C)nc3c2CCN(c2cccc4cccc(Cl)c24)C3)C[C@@H]1CC#N [ADAGRASIB]
